The values that follow come from publication PMC11229374, “Unlocking the potential of protein-derived peptides to target G-quadruplex DNA: from recognition to anticancer activity” (Nucleic Acids Research, 2024).

*: point of attachment. FITC = O=C1OC2(c3ccc(O)cc3Oc3cc(O)ccc32)c2ccc(NC(=S)*)cc21; AEEA = NCCOCCOCC(=O)O

In one data set the test system is U2OS cells. The data set is described as follows: Viability assay (crystal violet), U2OS. The class given is cell-based. To be noted: 72 h treatment. As to the method:
U2OS, HCT116 and MDA-MB-231 cells were purchased from the ATCC and grown in Dulbecco modified Eagle's medium (DMEM; EuroClone, Milan, Italy; ECM0728L) supplemented with 10% Fetal Bovine Serum (FBS, ThermoFisher Scientific/Gibco, Waltham, MA, USA; 10270-106), 2 mM L-glutamine and antibiotics in a humidified incubator at 37°C with 5% CO2 and atmospheric O2 concentration. Cell lines were authenticated and tested to be mycoplasma-free.
U2OS, HCT116, and MDA-MB-231 cells were seeded in 24-well plates at a density of 1 × 10^4, 20 × 10^3 and 12 × 10^3 for each well, respectively. After 24 h, cells were treated with the indicated peptides and incubated at 37°C for additional 72 h. Upon treatment completion, cell medium was removed, the wells were washed twice in phosphate-buffered saline (PBS) and fixed with 4% formaldehyde for 15 min at room temperature (RT). After washing, 500 μl of crystal violet staining solution (Sigma-Aldrich, St. Louis, MO, USA) was added to each well and incubated for 30 min at RT. Finally, the plates were rinsed twice with water, air-dried and cell pellets were dissolved in 400 μl of a 10% aqueous solution of acetic acid. In total, 200 μl of each sample was transferred to a 96-well plate, and the optical density was measured at 570 nm (OD570) with an ELISA reader (Thermo Scientific, Waltham, MA, USA). The average absorbance in each condition was used to calculate the viability expressed as a percentage of treated vs untreated conditions (CTR).

For a further data set, the system named is γH2AX in U2OS cells. In words: Immunofluorescence of γH2AX (DNA damage). It is filed as cell-based. To be noted: 10 μM peptide, 24 h. Here is the method:
To evaluate telomere-localized DNA damage, FISH assay with a telomeric probe was combined to IF staining of γH2AX. Cells were seeded on glass coverslips in a 6-well plate at a density of 1 × 10^5 cells/well. After 24 h of treatment with indicated peptides, cells were washed three times with PBS 1×, fixed with formaldehyde 4% in PBS for 2 min at RT and washed three times with PBS 1×. The fixation protocol was repeated twice and then the samples were dehydrated by sequential exposure to 70%, 90% and 100% EtOH and DNA was denatured by incubation at 80°C for 3 min in the presence of the telomere probe solution (10 mM of Tris pH 7.2, MgCl2 buffer, 70% of deionized formamide, […] of TelC-Cy3 telomeric probe (Panagene, Daejeon, Korea), 0.25% of blocking reagent). […] For quantitative analysis of γH2AX positive cells, at least 200 cells/condition were scored in triplicate. For Telomere-Induced Foci (TIFs) analysis, at least 25 γH2AX-positive cells on a single plane were scored. […] Fluorescence signals were recorded with Zeiss Laser Scanning Microscope 510 Meta (63× magnification) (Zeiss, Germany) and the experiment was analyzed with Adobe Photoshop CC 2019.

The subject of the next data set is G4. The data set is described as follows: CD experiments, G4-stabilizing properties of R7W conjugate versus parent. The class given is binding. The conditions noted are these: CD experiments (Supplementary Figure S39). From the text:
The buffer baseline was subtracted from each spectrum.

A further data set concerns HER2. The data set is described as follows: Real-time RT-PCR of HER2 expression. It is filed as cell-based. To be noted: U2OS, 10 μM peptide, 8, 16 and 24 h. Here is the method:
(§1) U2OS cells were seeded on glass coverslips in a 6-well plate at a density of 2 × 10^5 cells/well and treated with the peptides for 8, 16, and 24 h. Total RNA was isolated from the cell lines using WizPrep™ Total RNA Mini Kit (Cell). The quality and the quantity of RNA extraction was assessed by evaluating the A280/A260 nm and A260/A230 nm absorbance ratio (Nanodrop 1000, Thermo Fisher Scientific). The mRNA Reverse Transcription (RT) was performed using the QuantiTect Reverse Transcription Kit (Qiagen). mRNA expression was evaluated by SYBR Green (Applied Biosystems) in the QuantStudio 6 Flex Detection system (ThermoFisher Scientific). Primer sequences are indicated in Supplementary Table S2.
A general note: Quantitative PCR measures a nucleic acid by following its amplification.

Another data set relates to BCL-2. The data set is described as follows: Real-time RT-PCR of BCL-2 expression. The conditions noted are these: U2OS, 10 μM peptide, 8, 16 and 24 h. It is filed as cell-based. As to the method: as §1
In a further data set the target is T1, FITC-MybA400 (UniProt P11938 397-415, G400A).
T1 chain: {FITC-AEEA}-NHTANSIRHRFRVYLSKRL-NH2
The data set is described as follows: MST; 20 mM K+; 5 mM KH2PO4/K2HPO4 pH 7.0, 20 mM KCl (LiCl for c-MYC stock), 25 C; MST with 0.1% Tween and 5% DMSO, 20 nM FITC-peptide. The conditions noted are these: tags: N-terminal FITC; parallel G4.

Another data set has as its target T2, MybA412 (Saccharomyces cerevisiae, UniProt P11938 397-415, S412A).
T2 chain: NHTGNSIRHRFRVYLAKRL
The data set is described as follows: isothermal titration calorimetry; 5 mM KH2PO4/K2HPO4, 20 mM KCl (c-MYC stock annealed in LiCl), pH 7.0; MST 25 C with 0.1% Tween, 5% DMSO, 20 nM labelled peptide, DNA titrated (stocks from 10 or 20 uM, mixed 1:1); ITC 25 C. To be noted: tags: N-acetyl; C-terminal NH2; chain copies: 2; parallel G4.

The target of the next data set is T3, MybA400 (UniProt P11938 397-415, G400A).
T3 chain: NHTANSIRHRFRVYLSKRL
Described as above. To be noted: tags: N-acetyl; C-terminal NH2; chain copies: 2; parallel G4.

Another data set concerns the target T4, Myb397-415 (UniProt P11938 397-415).
T4 chain: NHTGNSIRHRFRVYLSKRL
The data set is described as above. To be noted: tags: N-acetyl; C-terminal NH2; chain copies: 2; parallel G4.

A further data set has as its target T5, FITC-Myb397-415 (UniProt P11938 397-415).
T5 chain: {FITC-AEEA}-NHTGNSIRHRFRVYLSKRL-NH2
The data set is described as follows: microscale thermophoresis; 5 mM KH2PO4/K2HPO4, 20 mM KCl (c-MYC stock annealed in LiCl), pH 7.0; MST 25 C with 0.1% Tween, 5% DMSO, 20 nM labelled peptide, DNA titrated (stocks from 10 or 20 uM, mixed 1:1); ITC 25 C. To be noted: tags: N-terminal FITC-O2Oc; C-terminal NH2; parallel G4. For orientation: MST reads how a fluorescent partner responds to local heating, with and without ligand.

With “RRRRRRRW-GG-NHTANSIRHRFRVYLSKRL [R7W-Myb^A400, Myb^A400 N-terminally conjugated to the cell-penetrating peptide R7W via a glycine–glycine spacer]”, in the data set on U2OS cells, the “Inhibition of tumour cell growth, R7W-conjugated peptides” value is reported as “essentially to the same extent as R7W-Myb^397–415”. Moreover, the “Accumulation of phosphorylated histone H2AX (γH2AX)” value in the data set with γH2AX in U2OS cells was “most pronounced response”.

As to “RRRRRRRW-GG-NHTGNSIRHRFRVYLSKRL [R7W-Myb^397–415]”, the IC50 with U2OS cells (read-out: IC50 (concentration of drug capable of killing 50% of cells)) was roughly 5000 nM. In addition, the “G4-stabilizing properties compared with Myb^397–415” value in the data set on G4 was “no significant differences”. Moreover, the HER2 expression level entry in the data set with HER2 is recorded as “transiently modulated”. Also, in the data set on BCL-2, the BCL-2 expression level result is recorded as “transiently modulated”.

On to CGGGCGGGCGCTAGGGAGGGT (structured_DNA) [c-KIT2], for which the Kd with FITC-MybA400 was roughly 170 nM; with MybA412, 187 ± 28 nM; with MybA400, 137 ± 24 nM; in the data set with Myb397-415 it was 200 ± 12 nM; with FITC-Myb397-415 it was 130 ± 15 nM.

The Kd is a measure of binding affinity in units of concentration. Read a low Kd as tighter binding.
